# Measurements taken from US20200345049A1, “COMPOSITIONS” (Givaudan, S.A., priority 2017, published 2020).
# Where “and” joins values, the source holds several entries; their conditions need not be identical. Equal values may be shown once.
# Columns and labels:
# Format in all cases: in vivo, human
# [1] = test system: sweet sensitive taste panel; test: Sweetness enhancement: sweetener added to 5% (w/v) sucrose, ranked against 5, 6, 6.5 and 7% (w/v) sucrose solutions; conditions: for Average Score: ranked against 5, 6, 6.5 and 7% sucrose; for Sweetness enhancer effect: increase in sweetness of 5% (w/v) sucrose greater than sweetness of the sweetener alone
# Method: This solution was then ranked against 5, 6, 6.5 and 7% (w/v) sucrose solutions. This was repeated for 45 ppm Luo Han Guo extract. The average score of each solution was determined. […] These solutions were then ranked against 5, 6, 6.5 and 7% (w/v) sucrose solutions. The average score of each solution was determined.
# [2] = test system: expert panel of three people (trained flavourists); test: Descriptive taste test in 5% sucrose and 0.03% citric acid compared to Luo Han Guo extract; conditions: for Taste description: added to 5% sucrose and 0.03% citric acid; for Sweet quality compared to Luo Han Guo extract: in 5% sucrose and 0.03% citric acid
# Method: (§1) The taste of various concentrations of mixture 1 was tested by an expert panel of three people (trained flavourists) in solutions containing 5% sucrose and 0.03% citric acid. The taste was compared to the Luo Han Guo extract used in Example 2 (obtained from Azile LCC (Rolling Hills Est, California) (extract 1 of Example 1 above) and containing about 68 wt % mogrosides) (combined with the same 5% sucrose and 0.03% citric acid solution).
# as §1, with “these sweeteners” for “various concentrations of mixture 1”, “mogrosides).” for “mogrosides) (combined with the same 5% sucrose and 0.03% citric acid solution).”
# [3] = test system: sweet sensitive taste panel; test: Sweetness ranking against sucrose solutions to determine sucrose equivalence
# From the text: The term “sucrose equivalence” refers to the equivalence in sweetness of a composition containing at least one non-sucrose sweetener to a reference sucrose solution. Typically, taste panellists are trained to detect sweetness of reference sucrose solutions containing between 1% and 15% sucrose (w/v). Other non-sucrose sweeteners may then be tasted at a series of dilutions to determine the concentration of the non-sucrose sweetener that is as sweet (i.e. isosweet) to a given sucrose reference. The term “isosweet” refers to compositions that have equivalent sweetness. Typically, the sweetness of a given composition is measured with reference to a solution of sucrose. See “A Systematic Study of Concentration-Response Relationships of Sweeteners,” G. E. DuBois, D. E. Walters, S. S. Schiffman, Z. S. Warwick, B. J. Booth, S. D. Pecore, K. Gibes, B. T. Carr, and L. M. Brands, in Sweeteners: Discovery, Molecular Design and Chemoreception, D. E. Walters, F. T. Orthoefer, and G. E. DuBois, Eds., American Chemical Society, Washington, D.C. (1991), pp 261-276.
# A sweet sensitive taste panel ranked the sweetness of solutions of a mixture of sweeteners (“Mixture 1”) in relation to sucrose solutions at a range of concentrations to determine sucrose equivalence. Mixture 1 was a combination of fractions 11 to 18 of Example 2 and contained 8.16 wt % 11-O-mogroside V and 61.6 wt % mogroside V. The results are shown in Table 6 below.
# A sweet sensitive taste panel ranked the sweetness of solutions of various sweeteners (mogroside V, mogroside IV, siamenoside, neomogroside, 11-O-mogroside V) in relation to sucrose solutions at a range of concentrations to determine sucrose equivalence. The sweeteners were obtained using an Agilent 1100 preparative HPLC system with a Phenomenex Luna C18 (2) column (5 μm, 210×21.4 mm).
# [4] = test system: expert panel of seven people; test: Scoring of sweet taste aspects versus base solution (5% sucrose and 0.03% citric acid); conditions: Table 16, score versus base, 0 same, 3 much higher, −3 much lower
compound,measurement,setting,value
C[C@H](CC[C@@H](O[C@@H]1O[C@H](CO[C@H]2O[C@H](CO)[C@H](O)[C@H](O)[C@H]2O)[C@@H](O)[C@H](O)[C@H]1O[C@@H]1O[C@H](CO)[C@@H](O)[C@H](O)[C@H]1O)C(C)(C)O)[C@H]1CC[C@@]2(C)[C@H]3CC=C4[C@@H](CC[C@H](O[C@@H]5O[C@H](CO[C@@H]6O[C@H](CO)[C@@H](O)[C@H](O)[C@H]6OC6O[C@H](CO)[C@@H](O)[C@H](O)[C@H]6O)[C@@H](O)[C@H](O)[C@H]5O)C4(C)C)[C@]3(C)[C@H](O)C[C@]12C (stereo partly drawn) [Neomogroside],Average Score,[1]; 30 ppm in 5% (w/v) sucrose,6.35
same,Sweetness enhancer effect,[1],act as sweetness enhancers
same,Taste description,[2],"sweetness, but slightly bitter aftertaste"
same,Sweet quality compared to Luo Han Guo extract,[2],better than Luo Han Guo extract in terms of sweet quality
same,Total of sweetness ranks,"[3]; Table 13, 25 ppm Neomogroside, 9 panelists",16
same,Total of sweetness ranks,"[3]; Table 13, 30 ppm Neomogroside, 9 panelists",29
same,"Astringent, average score",[4]; 30 ppm,0
same,"Lingering Sweet, average score",[4]; 30 ppm,0.4
same,"Overall Sweet, average score",[4]; 30 ppm,1.4
same,"Upfront Sweet, average score",[4]; 30 ppm,1
same,"Volatile Off-Note, average score",[4]; 30 ppm,0
C[C@H](CC[C@@H](O[C@@H]1O[C@H](CO[C@@H]2O[C@H](CO)[C@@H](O)[C@H](O)[C@H]2O)[C@@H](O)[C@H](O)[C@H]1O[C@@H]1O[C@H](CO)[C@@H](O)[C@H](O)[C@H]1O)C(C)(C)O)[C@H]1CC[C@@]2(C)[C@H]3CC=C4[C@@H](CC[C@H](O[C@@H]5O[C@H](CO)[C@@H](O)[C@H](O)[C@H]5O)C4(C)C)[C@]3(C)[C@H](O)C[C@]12C [Siamenoside],Average Score,[1]; 25 ppm in 5% (w/v) sucrose,6.4
same,Sweetness enhancer effect,[1],act as sweetness enhancers
same,Taste description,[2],"more sweet body, sweeter, rounder with a little more upfront and more round lasting sweet"
same,Sweet quality compared to Luo Han Guo extract,[2],better than Luo Han Guo extract in terms of sweet quality
same,Total of sweetness ranks,"[3]; Table 11, Siamenoside 20 ppm, 7 panelists",19
same,Sweetness rank by panelist,"[3]; Table 11, Siamenoside 25 ppm",2 and 3 and 4
same,Total of sweetness ranks,"[3]; Table 11, Siamenoside 25 ppm, 7 panelists",19
same,"Astringent, average score",[4]; 25 ppm,0.4
same,"Lingering Sweet, average score",[4]; 25 ppm,0.6
same,"Overall Sweet, average score",[4]; 25 ppm,1.8
same,"Upfront Sweet, average score",[4]; 25 ppm,1.4
same,"Volatile Off-Note, average score",[4]; 25 ppm,0.2
OC[C@H]1O[C@@](CO)(O[C@H]2O[C@H](CO)[C@@H](O)[C@H](O)[C@H]2O)[C@@H](O)[C@@H]1O [Sucrose],Total of sweetness ranks,"[3]; Table 6, 1% Sucrose reference, 10 panelists",33
same,Sweetness rank by panelist,"[3]; Table 6, 1.5% Sucrose reference",4 and 5
same,Total of sweetness ranks,"[3]; Table 6, 1.5% Sucrose reference, 10 panelists",47
same,Total of sweetness ranks,"[3]; Table 9, 0.5% Sucrose reference, 6 panelists",8
same,Sweetness rank by panelist,"[3]; Table 9, 1% Sucrose reference",3 and 2 and 4
same,Total of sweetness ranks,"[3]; Table 9, 1% Sucrose reference, 6 panelists",19
same,Sweetness rank by panelist,"[3]; Table 9, 1.5% Sucrose reference",5 and 4
same,Total of sweetness ranks,"[3]; Table 9, 1.5% Sucrose reference, 6 panelists",29
same,Total of sweetness ranks,"[3]; Table 10, Sucrose 0.5% reference, 7 panelists",14
same,Total of sweetness ranks,"[3]; Table 10, Sucrose 1% reference, 7 panelists",23
same,Sweetness rank by panelist,"[3]; Table 10, Sucrose 1.5% reference",5
same,Total of sweetness ranks,"[3]; Table 10, Sucrose 1.5% reference, 7 panelists",35
same,Sweetness rank by panelist,"[3]; Table 11, Sucrose 0.5% reference",1 and 2
same,Total of sweetness ranks,"[3]; Table 11, Sucrose 0.5% reference, 7 panelists",8
same,Sweetness rank by panelist,"[3]; Table 11, Sucrose 1% reference",4 and 2 and 3
same,Total of sweetness ranks,"[3]; Table 11, Sucrose 1% reference, 7 panelists",24
same,Sweetness rank by panelist,"[3]; Table 11, Sucrose 1.5% reference",5
same,Total of sweetness ranks,"[3]; Table 11, Sucrose 1.5% reference, 7 panelists",35
same,Total of sweetness ranks,"[3]; Table 12, Sucrose 0.5% reference, 7 panelists",9
same,Sweetness rank by panelist,"[3]; Table 12, Sucrose 1% reference",2 and 3
same,Total of sweetness ranks,"[3]; Table 12, Sucrose 1% reference, 7 panelists",17
same,Sweetness rank by panelist,"[3]; Table 12, Sucrose 1.5% reference",3 and 4
same,Total of sweetness ranks,"[3]; Table 12, Sucrose 1.5% reference, 7 panelists",27
same,Total of sweetness ranks,"[3]; Table 13, 0.5% Sucrose reference, 9 panelists",15
same,Sweetness rank by panelist,"[3]; Table 13, 1% Sucrose reference",3 and 4 and 2
same,Total of sweetness ranks,"[3]; Table 13, 1% Sucrose reference, 9 panelists",31
same,Sweetness rank by panelist,"[3]; Table 13, 1.5% Sucrose reference",5 and 4
same,Total of sweetness ranks,"[3]; Table 13, 1.5% Sucrose reference, 9 panelists",44
